According to article PMC6877482, “Inhibition of AMD-Like Pathology With a Neurotrophic Compound in Aged Rats and 3xTg-AD Mice” (Frontiers in Aging Neuroscience, 2019):

Key:
[1] = test system: retina of aged Fisher rats; test: Retinal morphology (H & E, rows and thickness of ONL and INL) in aged rats; format: in vivo, rat; settings: female Fisher rats ~19-21 months, 500 nmoles/kg/day by gavage for 3 months
Procedure: (§1) Female aged (19–21 months) Fisher rats (n = 7) were given P021 per os by gavage (10 ml/kg body weight) once a day for 88 days. […] To be able to deliver the same constant dose to each animal, we chose gavage. Furthermore, the administration of P021 by gavage is more economical than by drinking water. As controls, the second group of aged (19–21 months) female rats (n = 7) and a group of young adult female rats (2–3 months, n = 7) were treated identically, but with normal saline (vehicle) only (Figure 1A). Administration of vehicle and test compound was done at 7–9 AM daily and blindly to the investigators who collected, processed, and analyzed the tissue.
(§2) The animals were anesthetized by using an overdose of avertin and then were transcardially perfused by using 0.1 M phosphate-buffered saline (PBS). Eyeballs were dissected out from the carcasses, immersion-fixed for 24 h in 4% paraformaldehyde at 4°C, and then transferred to 70% alcohol for storage; in the case of mice, the eyeballs were prefixed by injecting 4% paraformaldehyde, followed by removal from the carcasses and immersion fixation as above. After the cornea and lens of the left eyes were removed, the remaining eye cup was embedded in paraffin, with the orientation parallel to the optic nerve in longitudinal position. In all cases, 5-μm serial sections were cut by using a rotary microtome and were mounted on Superfrost Plus slides. Processing and analysis of the retinal tissue were conducted blind.
(§3) Every 25th retinal section was deparaffinized and subjected to hematoxylin and eosin (H & E) staining to evaluate the morphology. The H & E staining images were captured with a light microscope using 2×, 40×, and 100× objective lenses. Because there is no significant difference between the 1/5th to the 1/3rd of the retina from the optic nerve head and the most peripheral part, we chose the 1/5th position of the retina from the optic nerve to the most peripheral part of the retina as the “central,” and the most peripheral part of the retina as “peripheral.” Rows of the outer nuclear layer (ONL) and the inner nuclear layer (INL) of the retina in each group (every 25th section, 3–5 sections per rat or mouse, n = 5–7 rats per group; n = 5–6 mice per group) were manually counted in three columns per image by using a 40× or, where necessary, a higher magnification objective. The thicknesses of the ONL and INL of the central and peripheral retina in each group (every 25th section from the optic nerve head, 2–3 sections per rat or mouse, n = 3–7 rats per group; n = 5–6 mice per group) were measured and quantified by using the ImageJ/NIH image analysis system. Processing and analysis of the retinal tissue and the data were conducted blind to the genotypes and the treatment of the animals.

[2] = test system: RPE of aged Fisher rats; test: RPE and BM pathology (H & E, auto-fluorescence deposits) in aged rats; format: in vivo, rat; settings: female Fisher rats ~19-21 months, 500 nmoles/kg/day by gavage for 3 months
Procedure: as §1
(§4) The animals were anesthetized by using an overdose of avertin and then were transcardially perfused by using 0.1 M phosphate-buffered saline (PBS). […]
Every 25th retinal section was deparaffinized and subjected to hematoxylin and eosin (H & E) staining to evaluate the morphology. […] Because there is no significant difference between the 1/5th to the 1/3rd of the retina from the optic nerve head and the most peripheral part, we chose the 1/5th position of the retina from the optic nerve to the most peripheral part of the retina as the “central,” and the most peripheral part of the retina as “peripheral.” Rows of the outer nuclear layer (ONL) and the inner nuclear layer (INL) of the retina in each group (every 25th section, 3–5 sections per rat or mouse, n = 5–7 rats per group; n = 5–6 mice per group) were manually counted in three columns per image by using a 40× or, where necessary, a higher magnification objective. The thicknesses of the ONL and INL of the central and peripheral retina in each group (every 25th section from the optic nerve head, 2–3 sections per rat or mouse, n = 3–7 rats per group; n = 5–6 mice per group) were measured and quantified by using the ImageJ/NIH image analysis system. […]

[3] = test system: retina of 3xTg-AD mice; test: Retinal morphology (H & E, rows and thickness of ONL and INL) in aged 3xTg-AD mice; format: in vivo, mouse; settings: female 3xTg-AD mice, 60 nmoles P021/g feed from 3 to 21 months of age
Source text: (§5) At approximately 3 months of age, the female wild type and 3xTg-AD mice were divided into five groups (n = 6–7 mice per group; Figure 3A): (1) wild type mice, age 3 months, without treatment (WT-3 m); (2) 3xTg-AD mice, age 3 months, without treatment (3xTg-3 m); (3) wild type mice, age 3 months, treated with vehicle feed without P021 until the age of 21 months (WT-21 m/Veh); (4) 3xTg-AD-mice, age 3 months, treated with vehicle feed without P021 until the age of 21 months (3xTg-21 m/Veh); and (5) 3xTg-AD-mice, age 3 months, treated with 60 nmol P021/g feed till the age of 21 months (3xTg-21 m/P021). The first two groups, WT-3 m and 3xTg-AD-3 m, were the starting points and were employed as controls to study age-associated AMD-like changes in WT-21 m and 3xTg-AD-21 m, respectively. We included WT-21 m/Veh as another reference group to enable a comparison of AMD-like changes in 3xTg-21 m/Veh with age-matched WT animals. […] P021 was formulated in the feed by Research Diets (New Brunswick, NJ, USA). Food consumption and body weight were recorded every 2 weeks and every month, respectively. The average mouse food consumption was ~2.7 g feed/day. The analysis of the animals was carried out blind to the treatment.
as §2, §3

[4] = test system: RPE and BM of 3xTg-AD mice; test: RPE and BM pathology (H & E, auto-fluorescence deposits) in aged 3xTg-AD mice; format: in vivo, mouse; settings: female 3xTg-AD mice, 60 nmoles P021/g feed from 3 to 21 months of age
Source text: (§6) At approximately 3 months of age, the female wild type and 3xTg-AD mice were divided into five groups (n = 6–7 mice per group; Figure 3A): (1) wild type mice, age 3 months, without treatment (WT-3 m); (2) 3xTg-AD mice, age 3 months, without treatment (3xTg-3 m); (3) wild type mice, age 3 months, treated with vehicle feed without P021 until the age of 21 months (WT-21 m/Veh); (4) 3xTg-AD-mice, age 3 months, treated with vehicle feed without P021 until the age of 21 months (3xTg-21 m/Veh); and (5) 3xTg-AD-mice, age 3 months, treated with 60 nmol P021/g feed till the age of 21 months (3xTg-21 m/P021). The first two groups, WT-3 m and 3xTg-AD-3 m, were the starting points and were employed as controls to study age-associated AMD-like changes in WT-21 m and 3xTg-AD-21 m, respectively. […] Food consumption and body weight were recorded every 2 weeks and every month, respectively. […]
Every 25th retinal section was deparaffinized and subjected to hematoxylin and eosin (H & E) staining to evaluate the morphology. […] The thicknesses of the ONL and INL of the central and peripheral retina in each group (every 25th section from the optic nerve head, 2–3 sections per rat or mouse, n = 3–7 rats per group; n = 5–6 mice per group) were measured and quantified by using the ImageJ/NIH image analysis system. […]

[5] = test system: Iba-1; test: Microgliosis, Iba-1 immunofluorescence in retina of 3xTg-AD mice; format: in vivo, mouse; settings: female 3xTg-AD mice, 60 nmoles P021/g feed from 3 to 21 months of age
Source text: as §6
(§7) Paraffin sections were deparaffinized, rehydrated, and subjected to antigen retrieval by boiling for 20 min in 10 mM sodium citrate solution (pH 6.0). […] The area to be analyzed was selected, converted to grayscale, and thresholded using Yen’s arithmetic, and the area percentage of positive staining was measured for each section by using the NIH ImageJ software package. The staining area was quantified from two to three sections of each eye and averaged (n = 5–7 animals per group).

[6] = test system: Iba-1; test: Microgliosis, Iba-1 immunofluorescence in retina of aged rats; format: in vivo, rat; settings: female Fisher rats ~19-21 months, 500 nmoles/kg/day by gavage for 3 months
Procedure: as §1, §4, §7

[7] = test system: GFAP; test: Astrogliosis, GFAP immunofluorescence in retina of 3xTg-AD mice; format: in vivo, mouse; settings: female 3xTg-AD mice, 60 nmoles P021/g feed from 3 to 21 months of age
Source text: as §5, §4, §7

[8] = test system: GFAP; test: Astrogliosis, GFAP immunofluorescence in retina of aged rats; format: in vivo, rat; settings: female Fisher rats ~19-21 months, 500 nmoles/kg/day by gavage for 3 months; n = 6-7 rats; vs 22-24 m/Veh
Procedure: as §1, §4, §7

[9] = test system: total tau, phosphorylated tau, Aβ/APP; test: Tau and Aβ pathologies, immunofluorescence in retina of aged rats; format: in vivo, rat; settings: aged Fisher rats, 500 nmoles/kg/day by gavage for 3 months; qualitative, not quantified, 2-3 animals/group
Procedure: as §1, §4, §7

[10] = test system: total tau, phosphorylated tau, Aβ/APP; test: Tau and Aβ pathologies, immunofluorescence in retina of aged 3xTg-AD mice; format: in vivo, mouse; settings: 60 nmoles P021/g feed from 3 to 21 months of age, qualitative, not quantified, 2-3 animals/group
Source text: as §6, §7

[11] = test system: VEGF; test: VEGF immunofluorescence in retina and optic nerve of aged 3xTg-AD mice; format: in vivo, mouse; settings: 60 nmoles P021/g feed from 3 to 21 months of age, qualitative, 2-3 animals/group
Source text: as §6, §7

[12] = method not given, block ends with ref Kazim et al., 2014, cited from earlier work
Procedure: P021 is quite stable in artificial gastric juice (~90% for 30 min) and in artificial intestinal juice (>95% for 120 min).

[13] = commercial service (APREDICA, Watertown, MA, USA); ref Kazim et al., 2014; cited from earlier work
[14] = test system: aged rats and mice; settings: chronic oral treatment in aged rats and mice, earlier study; ref Kazim et al., 2014; cited from earlier work
Source text: At as early as 12 months of age, OXYS rats and Wistar rats are known to show AMD-like pathology, such as BM thickening and lipofuscin accumulation (Neroev et al., [2008]; Markovets et al., [2011]). […] Here, to assess the AMD-like retinal pathology induced by aging and to study the effect of P021 on the p ...

For Ac-DGGL^AG-NH2 [P021], the “outer retinal folds and rosette-like structures in the central retina” value [1] was “No abnormal structure like this was observed”, the “rows and thickness of INL in the central retina” value [1] was “no detectable effect” and the “rows and thickness of ONL, central and peripheral retina” value ([1]; vs 22-24 m/Veh) was “prevented these pathological changes more effectively in the central retina”. For the same substance, the “rows of INL in the peripheral retina” value ([1]; vs 22-24 m/Veh) was “showed a clear trend to rescue the number of rows”, the “arrangement of apical microvilli (AM) in RPE” value ([2]; H & E) was “showed improvement in the arrangement of AM” and the “vacuolation and atrophy of RPE” value ([2]; H & E) was “no apparent abnormalities were observed”. For the same substance, the “lipofuscin granules and deposition number between RPE and Cho” value ([2]; auto-fluorescence λex = 543, n = 7 rats, vs 22-24 m/Veh) was “markedly decreased”, the “extension of ONL nuclei across the OPL or into the INL, central retina” value ([3]; H & E) was “this pathology was prevented” and the “prevention of changes in rows and thickness of INL in the peripheral retina” value ([3]; vs 3xTg-21 m/Veh, H & E) was “did not reach significance”. The “rows and thickness of INL in the central retina” value ([3]; vs 3xTg-21 m/Veh, H & E) was “prevented these changes”, the “rows and thickness of ONL in the central retina” value ([3]; vs 3xTg-21 m/Veh, H & E) was “these changes in the central retina were prevented” and the “rows and thickness of ONL in the peripheral retina” value ([3]; vs 3xTg-21 m/Veh, H & E) was “showed a trend to rescue these changes”. The “rescue of INL thickness in the central retina” value ([3]; vs 3xTg-21 m/Veh, obvious trend) was “did not reach statistical significance”, the “thickening of the BM” value ([4]; H & E) was “no BM thickening” and the “number of deposits between the RPE and Cho” value ([4]; auto-fluorescence λex = 543, n = 5 mice, vs 3xTg-21 m/Veh) was “significantly reduced”. The “distribution of Iba-1-positive staining in the central retina” value [5] was “only observed in the GCL”, the “area percentage of Iba-1 immunostaining in the peripheral retina” value ([5]; NFL to ONL, n = 3-6 mice, vs 3xTg-21 m/Veh) was “decreased in 3xTg-21 m/P021 mice to the levels in WT-3 m/Veh and 3xTg-3 m/Veh mice” and the “localization of Iba-1-positive microglial cells in the retina” value ([6]; especially central retina) was “no staining was found from the ONL to the OS”. The “relative Iba-1 immunostaining from the NFL to the OS, central and peripheral retinas” value ([6]; n = 6-7 rats, vs 22-24 m/Veh) was “dramatically reduced”, the “distribution of GFAP-positive staining in the retina” value [7] was “limited to the NFL and GCL” and the “area percentage of GFAP in the peripheral retina, changes between groups” value ([7]; n = 3-6 mice, similar trend, large standard error) was “did not reach statistical significance”. For the same substance, the “area percentage of GFAP from the NFL to the ONL in the central retina” value ([7]; n = 5-6 mice, vs 3xTg-21 m/Veh) was “reduced by P021 treatment to the levels in WT-3 m/Veh and 3xTg-3 m/Veh mice”, the “GFAP staining in central and peripheral retinas” value [8] was “reduced very much” and the “tau and Aβ pathologies in the retina (R134d, PHF-1, AT8, 4G8, Aβ immunofluorescence)” value [9] was “prevented the trend in the increase in tau and Aβ pathologies”. The “tau and Aβ pathologies in the retina (R134d, PHF-1, AT8, 4G8, Aβ immunofluorescence)” value [10] was “prevented the trend in the increase in tau and Aβ pathologies”, the “VEGF staining in the optic nerve” value [11] was “the size of the staining patch was decreased” and the “localization of VEGF-positive spots in the retina” value [11] was “limited mainly to the GCL to the IPL”. For the same substance, the “stability in artificial gastric juice” value ([12]; 30 min) was ~ 90%, the “stability in artificial intestinal juice” value ([12]; 120 min) was > 95% and the BBB crossing [13] was “a sufficient amount of P021 crossed the BBB”. For the same substance, the “general physical state / side effects” value [14] was “did not observe any worsening in general physical state”.
